Series [1] relates to L. donovani intramacrophage amastigotes. Kind of series: L. donovani intramacrophage assay (amastigotes in differentiated THP-1 cells). The following applies: Leishmania donovani; L. donovani amastigotes in differentiated THP-1 cells; read-out: Intramacrophage EC50. In kind it is cell-based, Leishmania donovani. The method, then:
T. cruzi4, Leishmania donovani axenic amastigote, cidal axenic amastigote and intra-
macrophage drug sensitivity assays were conducted as previously described5,6. […]
5. Intrinsic clearance (CLint) […]
6. Pharmacokinetic studies. […]

The subject of another series is THP-1 cells. Briefly: Mammalian cell growth inhibition (THP-1). The format is cell-based. As to conditions: Homo sapiens. The text has this:
We hypothesized that, in view of their structural similarity, 1 and 2 probably shared the same mechanism of action.

Series [2] in a line: Intrinsic clearance in mouse liver microsomes. The format is in vitro ADME. The method, then:
page 13: 4. Parasite assays T. cruzi4, Leishmania donovani axenic amastigote, cidal axenic amastigote and intra- macrophage drug sensitivity assays were conducted as previously described5,6. a. […] Instead of a single readout at 72 h, multiple identical plates were used and read at different time points (24, 48, 72 h). Rate of kill curves showing the luminescence signal at each time point for each concentration were plotted. 5. […] The rate of intrinsic clearance (CLint) of each test compound was then calculated using the following calculation: CLint(mL/min/g liver) = k x V x Microsomal protein yield Where V (mL/mg protein) is the incubation volume/mg protein added and microsomal protein yield is taken as 52.5 mg protein/g liver. Verapamil (0.5 μM) was used as a positive control to confirm acceptable assay performance. 6. Pharmacokinetic studies. a. Mouse and dog PK Mouse pharmacokinetic studies were conducted in male CD-1 mice and male beagle dogs. 3 animals per group were used for each study performed. A dose of 3 mg/kg was administered intravenously, in a bolus form to mice and infused over a 30 min period to dogs. For all the intravenous studies compound were dissolved in 5% DMSO/20% kleptose in saline. A dose of 10 mg/kg was orally administered by gavage to the two species in a suspension of 1% methylcellulose to investigate oral pharmacokinetics. S13
(In general: Microsomes from liver hold many membrane-bound enzymes, among them those of drug oxidation.)

Series [3] deals with L. donovani promastigotes. Kind of series: microbe, parasite or virus in culture. The format is cell-based, Leishmania donovani. The method, then: 9. Mode of action studies a. Cell lines and culture conditions […]
c. Generation of drug-resistant parasites […]
donovani in the continuous presence of this compound. Starting at a sub-lethal […]
After a total of 120 days in
Genomic DNA was harvested from three independently generated L. donovani resistant clones and an age match control, as previously described27. PCR was performed using Platinum PCR Supermix (Invitrogen), as per manufacturer’s […]
generated using primers SubunitB4FW and SubunitB4RV, then sequenced using primer SubunitB4FW (Table S6). To sequence the β5 subunit (LdBPK_361730.1), an […]
sequenced using primer SubunitB5FW. PCR amplification and DNA sequencing were performed in triplicate for each independently generated cell line. The Leishmania donovani BPK282A1 sequences of the two subunits were identified in TriTrypDB and […]
e. Generation of overexpression constructs and LdBOB transgenic cell lines The genes encoding the mutated versions of the β4 (LdBPK_360340.1) and the β5 […]
parasites, were synthesised (GeneArt, Thermo Fischer Scientific). The synthetic genes, flanked by BamHI sites were cloned into the equivalent site of pIR1-SAT. The accuracy of all assembled constructs was verified by sequencing.
Mid-log-phase L. donovani promastigotes (LdBOB) were transfected with overexpression constructs using the Human T-Cell Nucleofector kit and the Amaxa Nucleofector electroporator (program V-033). Following transfection, cells were […]
to appropriate drug selection (100 µg/mL nourseothricin). Cloned cell lines were […]
selection for one passage prior to experiments. […]

A short description of series [4]: CAD (charged aerosol detector) solubility.
A short description of series [5]: Solubility in fasted simulated intestinal fluid (FaSSIF). As to conditions: fasted simulated intestinal fluid (FaSSIF), fassif.
Series [6] concerns trypsin activity of the L. donovani proteasome. Kind of series: Proteasome activity assay, trypsin-like, L. donovani. In kind it is biochemical, Leishmania donovani. The method, then: k. Proteasome activity assays
Compounds were dispensed into black 384-well assay plates (Greiner) by acoustic dispensing (LabCyte ECHO). For potency determinations, eleven-point, one in three dilution curves were generated, with a top concentration of 100 µM. Three proteasome activities were measured using a commercially available indirect enzyme-based luminescent assay kit (Promega) with Suc-LLVY-aminoluciferin, Z-LRR-aminoluciferin and Z-nLPnLD-aminoluciferin used as substrates for chymotrypsin-like, trypsin-like and caspase-like activities, respectively. In addition to proteasome samples: L. donovani and THP1-enriched proteasomes, commercially available human purified 26S proteasome (Boston Biochem) was also assessed. Proteasome final assay concentration were 0.025 mg/ml for L. donovani and THP1-enriched proteasomes and 1 nM for human purified 26S proteasome. Proteasome solution was added to the plates containing the compounds one hour before adding the proteasome substrate solution.
Substrate solution was then added and after 30 min of incubation luminescent signal was measured in an Envision reader (PerkinElmer).
Cultures of L. donovani axenic amastigotes were diluted to either 8 x 106 or 8 x 107 […]
value. […]
value) were used as negative and positive controls, respectively. […] Protein concentrations were determined by standard Bradford assays and Laemmli sample buffer was added to samples. […]

Setting [7] is: Leishmania donovani, RES II-resistant cells.
The mark [8] stands for this setting: Leishmania donovani, WT promastigotes.

≈ marks a conversion by molar mass, not a printed value.

The values below come from article PMC6511062, “Preclinical candidate for the treatment of visceral leishmaniasis that acts through proteasome inhibition” (Proceedings of the National Academy of Sciences of the …, 2019).

The term EC50 denotes the concentration needed to bring the measured effect to its halfway point. As usually defined, the solubility is the dissolved amount per volume that the medium holds.

`O=C(Nc1ccc(F)c(-c2cn3nc(-c4ccccc4)cnc3n2)c1)N1CCCC1` [Compound 7]: the EC50 in series [1] was 350 nM; in the series with THP-1 cells, more than 50000 nM; in series [3] (setting [7]), more than 1000 nM; in series [3] (setting [8]) it was 3.5 ± 0.09 nM; in series [3] (Leishmania donovani, WT, overexpression experiment (Fig. 3D)), 9.4 ± 0.14 nM; in series [3] (Leishmania donovani, β4MUT cells (overexpressing β4 T30A)), 11.2 ± 0.2 nM. In series [3] (Leishmania donovani, β5MUT cells (overexpressing β5 G197C)), this molecule gave an EC50 of 37.6 ± 0.6 nM. For the same molecule, the CLint in series [2] came out at 1.7 mL/min/g. In addition, in series [3] (resistant clones vs WT), the “resistance of compound 7-resistant clones” value is more than 100 fold. In addition, in series [3] (β5 G197C overexpression vs WT), the “reduction of susceptibility on overexpression of mutated β5 subunit” value was “fourfold”. Also, the solubility was 7 µg/mL (≈ 17.4 µM) in series [4] and 1 µg/mL (≈ 2.48 µM) in series [5].

Take `O=C(Nc1ccc(F)c(-c2ccn3c(N4CCOCC4)cnc3n2)c1)N1CCCC1` [Compound 8]: the EC50 is 1600 nM in series [1]; more than 50000 nM in the series with THP-1 cells; more than 1000 nM in series [3] (setting [7]); 14.6 ± 0.3 nM in series [3] (setting [8]); 14 nM in series [3] (WT promastigotes). The molecule further showed a CLint in series [2] of 0.77 mL/min/g. In addition, the “CLint (intrinsic clearance when incubated with mouse liver microsomes)” value in series [2] was found to be 0.8 mL/min per gram. For the same molecule, the “effect on trypsin activity” value in series [6] is “no effect”. The solubility was 231 µg/mL (≈ 563 µM) in series [4] and 180 µg/mL (≈ 439 µM) in series [5].
